The values that follow are results of earlier work, collected in patent US12036548B2, “Organs-on-chips as a platform for epigenetics discovery” (EMULATE, INC., priority 2018, dated 2024).

For the series the following is noted: normal nutritional iodine supply.

As for `II` [iodine], the “fraction taken up and stored by a normally functioning thyroid gland” value is listed as 15-30%.
